Assay results reported in ChEMBL document CHEMBL3751841, “Synthesis of carboxyimidamide-substituted benzo[c][1,2,5]oxadiazoles and their analogs, and evaluation of biological activity against Leishmania donovani” (Medchemcomm, 2015).

Experiments:
[1] = system: Leishmania donovani; assay: Antileishmanial activity against Leishmania donovani MHOM/SD/1962/1S-Cl2d axenic amastigotes assessed as inhibition of parasite growth at 50 uM after 24 hrs by alamar blue staining based fluorescent viability microplate assay; format: functional; conditions: read-out: GI
[2] = system: Leishmania donovani; assay: Antileishmanial activity against Leishmania donovani MHOM/SD/1962/1S-Cl2d axenic amastigotes assessed as inhibition of parasite growth at 15 uM after 24 hrs by alamar blue staining based fluorescent viability microplate assay; format: functional; conditions: read-out: GI
[3] = system: Leishmania donovani; assay: Antileishmanial activity against Leishmania donovani MHOM/SD/1962/1S-Cl2d axenic amastigotes assessed as inhibition of parasite growth at 5 uM after 24 hrs by alamar blue staining based fluorescent viability microplate assay; format: functional; conditions: read-out: GI
[4] = system: Leishmania donovani; assay: Antileishmanial activity against Leishmania donovani MHOM/SD/1962/1S-Cl2d axenic amastigotes assessed as inhibition of parasite growth after 24 hrs by alamar blue staining based fluorescent viability microplate assay; format: functional, organism-based
[5] = Cytotoxicity against human THP1 cells assessed as reduction in cell viability after 48 hrs by alamar blue dye based assay; conditions: THP-1, 48 h
[6] = Cytotoxicity against mouse NIH/3T3 cells assessed as reduction in cell viability after 48 hrs by alamar blue dye based assay; conditions: NIH3T3, 48 h
[7] = Selectivity index, ratio of EC50 for human THP1 cells to EC50 for Leishmania donovani axenic amastigotes; format: toxicity, cell-based, THP-1; conditions: THP1 cells versus Leishmania donovani axenic amastigotes, read-out: Ratio EC50
[8] = Selectivity index, ratio of EC50 for mouse NIH/3T3 cells to EC50 for Leishmania donovani […] amastigotes; format: toxicity, cell-based; conditions: read-out: Ratio EC50
[9] = system: Leishmania donovani; assay: Antileishmanial activity against luciferase expressing Leishmania donovani intracellular amastigotes infected in human THP1 cells assessed as inhibition of parasite growth at 5 uM after 48 hrs by Bright-glo luciferase assay; format: functional; conditions: THP-1, 48 h, read-out: GI
[10] = system: Leishmania donovani; assay: Antileishmanial activity against luciferase expressing Leishmania donovani intracellular amastigotes infected in human THP1 cells assessed as inhibition of parasite growth after 48 hrs by Bright-glo luciferase assay; format: functional, organism-based; conditions: THP-1, 48 h
[11] = system: Leishmania donovani; assay: Antileishmanial activity against Leishmania donovani MHOM/SD/1962/1S-Cl2d axenic amastigotes assessed as inhibition of parasite growth at 1 uM after 24 hrs by alamar blue staining based fluorescent viability microplate assay; format: functional; conditions: read-out: GI
[12] = system: Leishmania donovani; assay: Antileishmanial activity against luciferase expressing Leishmania donovani intracellular amastigotes infected in human THP1 cells assessed as inhibition of parasite growth at 1 uM after 48 hrs by Bright-glo luciferase assay; format: functional; conditions: THP-1, 48 h, read-out: GI

N/C(=N\OC(=O)Nc1ccccc1)c1ccc2[nH]ccc2c1
inhibition of growth at 50 µM [1]: 91.9% | inhibition of growth at 15 µM [2]: 21.6%

N/C(=N\OC(=O)c1ccccc1)c1ccc2nonc2c1
inhibition of growth at 50 µM [1]: 51.1%

Cc1ccccc1NC(=O)O/N=C(\N)c1ccc2nonc2c1
inhibition of growth at 50 µM [1]: 42%

O=C(Nc1ccccc1)ONC(=O)c1ccc2nonc2c1
inhibition of growth at 50 µM [1]: 96.2% | inhibition of growth at 15 µM [2]: 68.2% | inhibition of growth at 5 µM [3]: 54.6% | EC50 [4]: 8.1 µM | EC50 [5]: 33.7 µM | EC50 [6]: > 300 µM | selectivity ratio [7]: 4.2 | selectivity ratio [8]: > 37 | inhibition of growth at 5 µM [9]: 19.9%

N/C(=N\OC(=O)Nc1ccccc1Cl)c1ccc2nonc2c1
inhibition of growth at 50 µM [1]: 29.6%

N/C(=N\OC(=O)NC1CCCCC1)c1ccc2nonc2c1
inhibition of growth at 50 µM [1]: 43.9%

N/C(=N\OC(=O)Nc1ccccc1)c1ccc2[nH]cnc2c1
inhibition of growth at 50 µM [1]: 72%

N/C(=N\OC(=O)Nc1ccccc1)c1ccc2sccc2c1
inhibition of growth at 50 µM [1]: 97.9% | inhibition of growth at 15 µM [2]: 35.2%

N/C(=N\OC(=O)Nc1ccccc1)c1ccccc1
inhibition of growth at 50 µM [1]: 78.4% | inhibition of growth at 15 µM [2]: 5.4%

N/C(=N\OC(=O)Nc1ccccc1)c1ccc2ccccc2c1
inhibition of growth at 50 µM [1]: 98.8% | inhibition of growth at 15 µM [2]: 24.9%

COc1ccccc1NC(=O)O/N=C(\N)c1ccc2nonc2c1
inhibition of growth at 50 µM [1]: 38%

N/C(=N\OC(=O)Nc1ccccc1C(F)(F)F)c1ccc2nonc2c1
inhibition of growth at 50 µM [1]: 42.1%

COc1ccc(NC(=O)O/N=C(\N)c2ccc3nonc3c2)cc1
inhibition of growth at 50 µM [1]: 46%

N/C(=N\OC(=O)Nc1ccccc1)c1ccc2c(c1)OCO2
inhibition of growth at 50 µM [1]: 93% | inhibition of growth at 15 µM [2]: 33.9%

N=C(NOC(=O)Nc1ccccc1)c1ccc2nonc2c1
inhibition of growth at 50 µM [1]: 70.1% | inhibition of growth at 15 µM [2]: 24.2%

N/C(=N\OC(=O)Nc1ccccc1)c1ccc2occc2c1
inhibition of growth at 50 µM [1]: 95.2% | inhibition of growth at 15 µM [2]: 48%

N/C(=N\OC(=O)Nc1cccc(C(F)(F)F)c1)c1ccc2nonc2c1
inhibition of growth at 50 µM [1]: 51.4%

N/C(=N\OC(=O)Oc1ccccc1)c1ccc2nonc2c1
inhibition of growth at 50 µM [1]: 26.5%

N=C(NOC(=O)Nc1cccc(Cl)c1)c1ccc2nonc2c1
inhibition of growth at 50 µM [1]: 94.8% | inhibition of growth at 15 µM [2]: 87.2% | inhibition of growth at 5 µM [3]: 43.4% | EC50 [4]: 4.2 µM | EC50 [10]: 5.92 µM | EC50 [5]: 79.9 µM | EC50 [6]: > 300 µM | selectivity ratio [7]: 19 | selectivity ratio [8]: > 71.4 | inhibition of growth at 5 µM [9]: 33.1%

N/C(=N\OC(=O)Nc1ccc(Cl)cc1)c1ccc2nonc2c1
inhibition of growth at 50 µM [1]: 44%

COc1cccc(NC(=O)O/N=C(\N)c2ccc3nonc3c2)c1
inhibition of growth at 50 µM [1]: 71.4% | inhibition of growth at 15 µM [2]: 31.8%

N/C(=N\OC(=O)Cc1ccccc1)c1ccc2nonc2c1
inhibition of growth at 50 µM [1]: 22.4%

N/C(=N\OC(=O)Nc1ccc(C(F)(F)F)cc1)c1ccc2nonc2c1
inhibition of growth at 50 µM [1]: 51.7%

Cc1ccc(NC(=O)O/N=C(\N)c2ccc3nonc3c2)cc1
inhibition of growth at 50 µM [1]: 64.1%

Cc1cccc(NC(=O)O/N=C(\N)c2ccc3nonc3c2)c1
inhibition of growth at 50 µM [1]: 67.2% | inhibition of growth at 15 µM [2]: 44.6%

C[C@@H]1[C@H](O)[C@@H](C)/C=C/C=C/C=C/C=C/C=C/C=C/C=C/[C@H](O[C@@H]2O[C@H](C)[C@@H](O)[C@H](N)[C@@H]2O)C[C@@H]2O[C@](O)(C[C@@H](O)C[C@@H](O)[C@H](O)CC[C@@H](O)C[C@@H](O)CC(=O)O[C@H]1C)C[C@H](O)[C@H]2C(=O)O [AMPHOTERICIN B]
EC50 [10]: 0.11 µM | EC50 [5]: 2.1 µM | EC50 [6]: 2.2 µM | inhibition of growth at 1 µM [11]: 99.7% | inhibition of growth at 1 µM [12]: > 90%
